Assay results: patent US8952024B2, “Herbicidal pyrimidone derivatives” (E I du Pont de Nemours and Company, priority 2009, dated 2015)

What follows are compounds tested on Italian ryegrass (Lolium multiflorum) (assay: Test B pre-/postemergence plant response). Details: Postemergence, 31 g ai/ha; 0 to 100 scale (0 no effect, 100 complete control).
Type: in vivo
Method in brief: (§1)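 Seeds sown in loam–sand blend were treated preemergence, and plants at 2–18 cm (1- to 4-leaf stage) in peat-based medium were treated postemergence; compounds were formulated in non-phytotoxic solvent with surfactant. After 13–15 days in greenhouse, response was visually rated against controls, 0 (no effect) to 100 (complete control).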
For `O=C1CCCC(O)=C1C(=O)c1cnc(-c2ccc(F)cc2)n(C2CCCCC2)c1=O` [Compound 197], the “Plant response rating, Ryegrass, Italian” value was 0.

Same assay, conditions: Postemergence, 62 g ai/ha; scale 0 to 100 (0 no effect, 100 complete control)
In the case of `O=C1CCCC(O)=C1C(=O)c1cnc(-c2ccc(F)cc2)n(C2CCCCC2)c1=O` [Compound 197], the “Plant response rating, Ryegrass, Italian” value is reported as 0.

Same assay, conditions: Postemergence, 250 g ai/ha; scale 0 to 100 (0 no effect, 100 complete control); 13 to 15 days
In the case of `O=C1CCCC(O)=C1C(=O)c1cnc(-c2ccc(F)cc2)n(C2CCCCC2)c1=O` [Compound 197], the “Plant response rating, Ryegrass, Italian” value is reported as 35.

Each compound was assayed on bermudagrass (Cynodon dactylon) (assay: Test B pre-/postemergence plant response). Details: Postemergence, 31 g ai/ha; 0 to 100 scale (0 no effect, 100 complete control).
Type: in vivo
Method in brief: as §1
With `O=C1CCCC(O)=C1C(=O)c1cnc(-c2ccc(F)cc2)n(C2CCCCC2)c1=O` [Compound 197] the “Plant response rating, Bermudagrass” value was 95.

Same assay, conditions: Postemergence, 62 g ai/ha; scale 0 to 100 (0 no effect, 100 complete control)
For `O=C1CCCC(O)=C1C(=O)c1cnc(-c2ccc(F)cc2)n(C2CCCCC2)c1=O` [Compound 197], the “Plant response rating, Bermudagrass” value was 100.

Same assay, conditions: Postemergence, 125 g ai/ha; scale 0 to 100 (0 no effect, 100 complete control)
With `O=C1CCCC(O)=C1C(=O)c1cnc(-c2ccc(F)cc2)n(C2CCCCC2)c1=O` [Compound 197] the “Plant response rating, Bermudagrass” value was 100.

Same assay, conditions: Postemergence, 250 g ai/ha; scale 0 to 100 (0 no effect, 100 complete control); 13 to 15 days
With `O=C1CCCC(O)=C1C(=O)c1cnc(-c2ccc(F)cc2)n(C2CCCCC2)c1=O` [Compound 197] the “Plant response rating, Bermudagrass” value was 100.

The compounds below were run on corn (Zea mays) (assay: Test B pre-/postemergence plant response). Details: Postemergence, 31 g ai/ha; 0 to 100 scale (0 no effect, 100 complete control).
Type: in vivo
Method in brief: as §1
`O=C1CCCC(O)=C1C(=O)c1cnc(-c2ccc(F)cc2)n(C2CCCCC2)c1=O` [Compound 197] was tested, and the “Plant response rating, Corn” value was 15.

Same assay, conditions: Postemergence, 62 g ai/ha; scale 0 to 100 (0 no effect, 100 complete control)
With `O=C1CCCC(O)=C1C(=O)c1cnc(-c2ccc(F)cc2)n(C2CCCCC2)c1=O` [Compound 197] the “Plant response rating, Corn” value was 35.

Same assay, conditions: Postemergence, 125 g ai/ha; scale 0 to 100 (0 no effect, 100 complete control)
In the case of `O=C1CCCC(O)=C1C(=O)c1cnc(-c2ccc(F)cc2)n(C2CCCCC2)c1=O` [Compound 197], the “Plant response rating, Corn” value is reported as 45.

Same assay, conditions: Postemergence, 250 g ai/ha; scale 0 to 100 (0 no effect, 100 complete control); 13 to 15 days
In the case of `O=C1CCCC(O)=C1C(=O)c1cnc(-c2ccc(F)cc2)n(C2CCCCC2)c1=O` [Compound 197], the “Plant response rating, Corn” value is reported as 65.

The compounds below were run on downy bromegrass (Bromus tectorum) (assay: Test B pre-/postemergence plant response). Details: Postemergence, 31 g ai/ha; 0 to 100 scale (0 no effect, 100 complete control).
Type: in vivo
Method in brief: as §1
With `O=C1CCCC(O)=C1C(=O)c1cnc(-c2ccc(F)cc2)n(C2CCCCC2)c1=O` [Compound 197] the “Plant response rating, Bromegrass, Downy” value was 15.

Same assay, conditions: Postemergence, 62 g ai/ha; scale 0 to 100 (0 no effect, 100 complete control)
In the case of `O=C1CCCC(O)=C1C(=O)c1cnc(-c2ccc(F)cc2)n(C2CCCCC2)c1=O` [Compound 197], the “Plant response rating, Bromegrass, Downy” value is reported as 15.

Same assay, conditions: Postemergence, 125 g ai/ha; scale 0 to 100 (0 no effect, 100 complete control)
With `O=C1CCCC(O)=C1C(=O)c1cnc(-c2ccc(F)cc2)n(C2CCCCC2)c1=O` [Compound 197] the “Plant response rating, Bromegrass, Downy” value was 30.

Same assay, conditions: Postemergence, 250 g ai/ha; scale 0 to 100 (0 no effect, 100 complete control); 13 to 15 days
`O=C1CCCC(O)=C1C(=O)c1cnc(-c2ccc(F)cc2)n(C2CCCCC2)c1=O` [Compound 197] was tested, and the “Plant response rating, Bromegrass, Downy” value was 30.

What follows are compounds tested on giant foxtail (Setaria faberii) (assay: Test B pre-/postemergence plant response). Details: Postemergence, 31 g ai/ha; 0 to 100 scale (0 no effect, 100 complete control).
Type: in vivo
Method in brief: as §1
With `O=C1CCCC(O)=C1C(=O)c1cnc(-c2ccc(F)cc2)n(C2CCCCC2)c1=O` [Compound 197] the “Plant response rating, Foxtail, Giant” value was 85.

Same assay, conditions: Postemergence, 62 g ai/ha; scale 0 to 100 (0 no effect, 100 complete control)
In the case of `O=C1CCCC(O)=C1C(=O)c1cnc(-c2ccc(F)cc2)n(C2CCCCC2)c1=O` [Compound 197], the “Plant response rating, Foxtail, Giant” value is reported as 95.

Same assay, conditions: Postemergence, 125 g ai/ha; scale 0 to 100 (0 no effect, 100 complete control)
With `O=C1CCCC(O)=C1C(=O)c1cnc(-c2ccc(F)cc2)n(C2CCCCC2)c1=O` [Compound 197] the “Plant response rating, Foxtail, Giant” value was 98.

Same assay, conditions: Postemergence, 250 g ai/ha; scale 0 to 100 (0 no effect, 100 complete control); 13 to 15 days
With `O=C1CCCC(O)=C1C(=O)c1cnc(-c2ccc(F)cc2)n(C2CCCCC2)c1=O` [Compound 197] the “Plant response rating, Foxtail, Giant” value was 100.

Each compound was assayed on goosegrass (Eleusine indica) (assay: Test B pre-/postemergence plant response). Details: Postemergence, 31 g ai/ha; 0 to 100 scale (0 no effect, 100 complete control).
Type: in vivo
Method in brief: as §1
With `O=C1CCCC(O)=C1C(=O)c1cnc(-c2ccc(F)cc2)n(C2CCCCC2)c1=O` [Compound 197] the “Plant response rating, Goosegrass” value was 85.

Same assay, conditions: Postemergence, 62 g ai/ha; scale 0 to 100 (0 no effect, 100 complete control)
In the case of `O=C1CCCC(O)=C1C(=O)c1cnc(-c2ccc(F)cc2)n(C2CCCCC2)c1=O` [Compound 197], the “Plant response rating, Goosegrass” value is reported as 98.

Same assay, conditions: Postemergence, 125 g ai/ha; scale 0 to 100 (0 no effect, 100 complete control)
With `O=C1CCCC(O)=C1C(=O)c1cnc(-c2ccc(F)cc2)n(C2CCCCC2)c1=O` [Compound 197] the “Plant response rating, Goosegrass” value was 100.

Same assay, conditions: Postemergence, 250 g ai/ha; scale 0 to 100 (0 no effect, 100 complete control); 13 to 15 days
`O=C1CCCC(O)=C1C(=O)c1cnc(-c2ccc(F)cc2)n(C2CCCCC2)c1=O` [Compound 197] was tested, and the “Plant response rating, Goosegrass” value was 100.
